In publication PMC5854708, “Grass Carp Prolactin Gene: Structural Characterization and Signal Transduction for PACAP-induced Prolactin Promoter Activity” (Scientific Reports, 2018):

Experiments:
[1] = tested on: grass carp PRL promoter (pPRL(−1156).Luc) in αT3-1 cells; type: cell-based, grass carp (promoter); rat (αT3-1 cells, as printed); details: 0.1–1000 nM, 24 hr, n = 4
Experimental: The cells were then cultured for 18 hr recovery before drug treatment. (A) Time course analysis on the effect of oPACAP38 (6–48 hrs) on grass carp PRL promoter activity in αT3-1 cells. (B) αT3-1 cells over-expressed pPRL(−1156).LUC were treated for 24 hrs with increasing doses of oPACAP38. Effects of PACAP and VIP antagonists on PACAP-induced PRL mRNA expression were also investigated. In these experiments, αT3-1 cells over-expressed pPRL(−1156).LUC were challenged with oPACAP38 (10 nM, 24 hr) in the presence or absence of (C) the PACAP antagonist PACAP6-38 (10 nM) or (D) VIP antagonist (4-Cl-D-Phe6, Leu17)VIP (“VIP-R antagonist”, 100 nM).
After 18 h recovery, the cells were incubated with respective drugs. (A) αT3-1 cells over-expressed pPRL(−1156).LUC were treated for 24 hrs with increasing doses of cpt-cAMP (1–100 μM). (B) αT3-1 cells over-expressed pPRL(−1156).LUC were treated for 24 hrs with increasing doses of Forskolin (10–1000 nM). Effects of cAMP/PKA inhibitors on PACAP-induced PRL mRNA expression were then investigated. αT3-1 cells over-expressed pPRL(−1156).LUC were challenged with oPACAP38 (10 nM, 24 hr) in the presence or absence of (C) AC inhibitor MDL12330A (10 μM) or (D) PKA blocker H89 (10 μM).
After 18 h recovery, the cells were incubated with respective drugs. The cells were treated for 24 hr with increasing doses of (A) Ca^2+ ionophore A23187 or (B) L-type VSCC activator Bay K8644. Inhibiting extracellular Ca^2+ entry on PRL mRNA expression in carp pituitary cells was examined. In this study, αT3-1 cells over-expressed pPRL(−1156).LUC were treated with (C) oPACAP38 (10 nM, 24 hrs) or (D) Forskolin (100 nM, 24 hrs) in the Ca^2+-free medium (with different doses of EGTA).
After 18 h recovery, the cells were incubated with respective drugs.

[2] = tested on: tCREB in grass carp pituitary cells; experiment: Western blot of tCREB in primary grass carp pituitary cells; details: oPACAP38, 24 hrs
[3] = tested on: MAPK in SH-SY5Y neuroblastoma cells; details: human SH-SY5Y neuroblastoma cells; cited from earlier work
Source text: (§1) Given that PACAP has been reported to activate MAPK (e.g., in human SH-SY5Y neuroblastoma cells)[24], and PI3K-dependent cascades (e.g., in human neutrophils)[25], the functional role of MAPK and PI3K in PACAP-induced grass carp promoter activity were also examined. […] However, parallel treatment with the PI3K inhibi ...

[4] = tested on: PI3K-dependent cascades in neutrophils; details: human neutrophils; cited from earlier work
Source text: as §1

[5] = tested on: PRL secretion / PRL mRNA in grass carp pituitary cells; details: cited from earlier work
Source text: In carp model, PACAP nerve fibers can be identified in anterior pituitary overlapping with the distribution of lactotrophs. Furthermore, PAC1 receptors could be detected in grass carp lactotrophs.

αT3-1 cells, total IP = experiment: Total inositol phosphate measurement in αT3-1 cells; type: cell-based, rat (αT3-1 cells, as printed); details: myo-[3H] inositol labelled αT3-1 cells, 10 mM LiCl; treatment 45 min; GnRH 1 μM
Experimental: Figure 7 Functional role of the PLC/IP3/PKC and CaM/CaMK-II cascades in PACAP- and Forskolin-induced PRL promoter activity. αT3-1 cells were transiently transfected with pPRL(−1156).LUC for 6 h by using lipofectamine. After 18 h recovery, the cells were incubated with respective drugs. […] (B) Transfected αT3-1 cells were labeled with 2 μCi/well of myo-[3 H] inositol (DuPont/NEN) in myo-inositol free DMEM medium containing 10% fetal bovine serum and then treated with oPACAP38, VIP, and GnRH for 45 mins. The total IP production were analyzed by detecting the radio-labelled inositol incorporation.
Transfected αT3-1 cells were labeled with 2 μCi/well of myo-[^3H] inositol (DuPont/NEN) in myo-inositol free DMEM medium containing 10% fetal bovine serum. After incubation for 12 hr at 37 °C, myo-[^3H] inositol labeling medium was removed, and αT3-1 cells were washed two times with prewarmed phosphate buffered saline (PBS; pH 7.4) to remove trace of the excessive myo-[^3H] inositol. The transfected cells were then incubated in DMEM containing 0.1% BSA and 10 mM LiCl (to inhibit inositol phosphate degradation) for 20 min at 37 °C before drug treatment. After that, the transfected cells were treated with ovine PACAP38, VIP, and GnRH for 45 min. […] Levels of radioactivity in these samples were measured using a liquid scintillation counter (Beckman).

[6] = tested on: pCREB in grass carp pituitary cells; experiment: Western blot of pCREB in primary grass carp pituitary cells; details: oPACAP38, 24 hrs
[7] = tested on: cAMP production in αT3-1 cells; details: via PAC1 receptors; cited from earlier work

pituitary adenylate cyclase-activating peptide [PACAP]
concentration of maximal response, luciferase activity [1]: 1000 nM | dose dependence of luciferase activity expression [1]: up-regulate luciferase activity expression in a dose-dependent manner | EC50 ([1]; read-out: EC50 value, luciferase activity (PRL promoter activity)): 4.5 nM | total CREB production [2]: stimulated total CREB production | MAPK activation [3]: activate MAPK | activation of PI3K-dependent cascades [4]: activate | PRL mRNA expression [5]: up-regulated | PRL secretion [5]: up-regulated | total IP level (αT3-1 cells, total IP): enhance total IP level | CREB phosphorylation [6]: significantly enhanced CREB phosphorylation | cAMP production [7]: induced
